Laboratory results from ChEMBL document CHEMBL3879902, “Compounds and methods for kinase modulation, and indications thereof” (2012).

Assays:
[1] = Aqueous solubility of the compound in simulated intestinal fluid at pH 4.5; type: ADME; conditions: simulated gi fluid
[2] = Aqueous solubility of the compound in simulated intestinal fluid at pH 6.8; type: ADME; conditions: simulated gi fluid
[3] = Aqueous solubility of the compound in simulated gastric fluid at pH 1.5; type: ADME; conditions: simulated gi fluid
[4] = Aqueous solubility of the compound in hepes buffer at pH 7.4; type: physicochemical

| solubility [1] | solubility [2] | solubility [3] | solubility [4] | SMILES |
| --- | --- | --- | --- | --- |
| Insoluble | Insoluble | Soluble | Insoluble | CCCS(=O)(=O)Nc1ccc(F)c(C(=O)c2c[nH]c3ncc(-c4ccc(NC(C)=O)nc4)cc23)c1F |
| Soluble | Soluble | Insoluble | Soluble | O=C(c1c(F)ccc(NS(=O)(=O)c2cc(F)ccc2F)c1F)c1c[nH]c2nccc(Cl)c12 |
| Insoluble | Soluble | Insoluble | Soluble | N#Cc1cnc2[nH]cc(C(=O)c3cccc(NS(=O)(=O)c4cccc(F)c4)c3F)c2c1 |
| Insoluble | Insoluble | Insoluble | Insoluble | CCCS(=O)(=O)Nc1ccc(F)c(C(=O)c2c[nH]c3ncc(-c4ccc(F)nc4)cc23)c1F |
| Insoluble | Insoluble | Insoluble | Insoluble | CCCS(=O)(=O)Nc1ccc(F)c(C(=O)c2c[nH]c3ncc(-c4ccc(S(=O)(=O)N5CCOCC5)cc4)cc23)c1F |
| Insoluble | Insoluble | Insoluble | Insoluble | CCCS(=O)(=O)Nc1ccc(F)c(C(=O)c2c[nH]c3ncc(-c4ccc(OC)nc4OC)cc23)c1F |
| Insoluble | Insoluble | Insoluble | Insoluble | CCCS(=O)(=O)Nc1ccc(F)c(C(=O)c2c[nH]c3ncc(-c4ccc(S(=O)(=O)NC5CC5)cc4)cc23)c1F |
| Insoluble | Insoluble | Insoluble | Insoluble | CCCS(=O)(=O)Nc1ccc(F)c(C(=O)c2c[nH]c3ncc(-c4ccc(C(=O)NC5CC5)nc4)cc23)c1F |
| Insoluble | Insoluble | Insoluble | Insoluble | CCCS(=O)(=O)Nc1ccc(F)c(C(=O)c2c[nH]c3ncc(-c4cnn(Cc5ccccc5)c4)cc23)c1F |
| Insoluble | Soluble | Insoluble | Soluble | COc1cnc2[nH]cc(C(=O)c3c(F)ccc(NS(=O)(=O)c4cc(F)ccc4F)c3F)c2c1 |
| Insoluble | Soluble | Insoluble | Soluble | N#Cc1cnc2[nH]cc(C(=O)c3c(F)ccc(NS(=O)(=O)c4ccccc4)c3F)c2c1 |
| Soluble | Soluble | Soluble | Soluble | COc1ccnc2[nH]cc(C(=O)c3c(F)ccc(NS(=O)(=O)c4ccccc4F)c3F)c12 |
| Soluble | Soluble | Soluble | Soluble | N#Cc1cnc2[nH]cc(C(=O)c3cccc(NS(=O)(=O)c4ccccc4F)c3F)c2c1 |
| Insoluble | Soluble | Soluble | Soluble | Cc1cnc2[nH]cc(C(=O)c3c(F)ccc(NS(=O)(=O)c4cccc(F)c4)c3F)c2c1 |
| Soluble | Soluble | Soluble | Soluble | O=C(c1c(F)ccc(NS(=O)(=O)c2c(F)cccc2F)c1F)c1c[nH]c2ncc(Cl)cc12 |
| Insoluble | Insoluble | Insoluble | Insoluble | CCCS(=O)(=O)Nc1ccc(F)c(C(=O)c2c[nH]c3ncc(-c4ccc(S(N)(=O)=O)cc4)cc23)c1F |
| Insoluble | Insoluble | Insoluble | Insoluble | CCCS(=O)(=O)Nc1ccc(F)c(C(=O)c2c[nH]c3ncc(-c4ccc(C(=O)NCC)nc4)cc23)c1F |
| Soluble | Soluble | Soluble | Soluble | N#Cc1ccnc2[nH]cc(C(=O)c3c(F)ccc(NS(=O)(=O)c4ccccc4F)c3F)c12 |
| Insoluble | Soluble | Soluble | Soluble | Cc1cnc2[nH]cc(C(=O)c3c(F)ccc(NS(=O)(=O)c4c(F)cccc4F)c3F)c2c1 |
| Insoluble | Insoluble | Soluble | Soluble | CCCS(=O)(=O)Nc1ccc(F)c(C(=O)c2c[nH]c3ncc(-c4cncc(S(C)(=O)=O)c4)cc23)c1F |
